Measured values reported in patent US11117947B2, “Double-acylated GLP-1 derivatives” (Novo Nordisk A/S, priority 2011, dated 2021).
Numbered stars: 1 amine (or outer) side, 2 acyl side, 3 side chain; on linkers, the order of the positions; unused ones are H or OH. Square brackets hold non-standard residues; d marks the D form. Side chains are listed from the residue outwards. Peptide text beside a SMILES is read from it. * marks the point of attachment. γGlu = O=C(O)[C@H](CCC(=O)[*:2])N[*:1]; C14 diacid = O=C(O)CCCCCCCCCCCCC(=O)*; AEEA = NCCOCCOCC(=O)O; Aib = CC(C)(N)C(=O)O

Columns and labels:
[1] = Estimate of oral bioavailability: gut injection in rat (caprate), exposure in plasma; format: in vivo; settings: injection in jejunum, 1000 uM in 55 mg/ml sodium caprate, plasma concentration (pM) at 30 min divided by dosing solution concentration (μM), mean n=4
How it was run: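 Male Sprague Dawley rats (~240 g, n=4) received 100 μl of 1000 uM derivative in 55 mg/ml sodium caprate by catheter into proximal or mid jejunum. Tail-vein EDTA plasma was sampled up to 240 min. Peptide was quantified by two-antibody bead chemiluminescence immunoassay, giving mean concentration-time profiles (pmol/l).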

human GLP-1 receptor = target: T1, human GLP-1 receptor (Homo sapiens, UniProt P43220); assay: GLP-1 receptor binding: displacement of 125I-GLP-1 (SPA) at low and high albumin; settings: for Ratio [(IC50/nM) high HSA]/[(IC50/nM) low HSA]: 2.0% HSA vs 0.001% HSA; for IC50: low albumin, 0.001% HSA, read-out: IC50/nM (low HSA)
T1 construct: expressed in transfected cells; membranes
T1 sequence (P43220 24-463): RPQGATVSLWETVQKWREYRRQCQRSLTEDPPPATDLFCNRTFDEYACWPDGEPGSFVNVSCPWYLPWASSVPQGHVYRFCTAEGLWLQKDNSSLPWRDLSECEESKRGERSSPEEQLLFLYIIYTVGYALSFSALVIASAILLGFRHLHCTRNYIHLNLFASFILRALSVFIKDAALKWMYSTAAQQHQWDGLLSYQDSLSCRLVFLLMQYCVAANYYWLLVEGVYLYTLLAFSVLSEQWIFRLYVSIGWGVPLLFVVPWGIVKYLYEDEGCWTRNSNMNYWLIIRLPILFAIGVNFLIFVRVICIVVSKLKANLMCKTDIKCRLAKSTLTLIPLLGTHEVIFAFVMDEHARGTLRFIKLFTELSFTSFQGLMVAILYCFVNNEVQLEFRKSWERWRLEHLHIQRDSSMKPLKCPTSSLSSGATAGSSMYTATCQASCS
Protocol: The purpose of this experiment is to investigate the binding to the GLP-1 receptor of the GLP-1 derivatives, and how the binding is potentially influenced by the presence of albumin. This is done in an in vitro experiment as described below.
In order to test the binding of the derivatives to albumin, the assay was performed with a low concentration of albumin (0.001%—corresponding to the residual amount thereof in the tracer), as well as with a high concentration of albumin (2.0% added). A shift in the binding affinity, IC50, is an indication that the peptide in question binds to albumin, and thereby a prediction of a potential protracted pharmacokinetic profile of the peptide in question in animal models.
Species (in vitro): Hamster
Biological End Point: Receptor Binding
A stable transfected cell line and a high expressing clone were selected for screening. The cells were grown at 5% CO2 in DMEM, 10% FCS, 1% Pen/Strep (Penicillin/Streptomycin) and 1.0 mg/ml of the selection marker G418.
The cells (approx. 80% confluence) were washed twice in PBS and harvested with Versene (aqueous solution of the tetrasodium salt of ethylenediaminetetraacetic acid), following which they were separated by centrifugation at 1000 rpm for 5 min. The cells/cell pellet must be kept on ice to the extent possible in the subsequent steps. The cell pellet was homogenised with Ultrathurrax for 20-30 seconds in a suitable amount of Buffer 1 (depending on the amount of cells, but e.g. 10 ml). The homogenate was centrifuged at 20000 rpm for 15 minutes. The pellet was resuspended (homogenised) in 10 ml Buffer 2 and re-centrifuged. This step was repeated once more. The resulting pellet was resuspended in Buffer 2, and the protein concentration was determined. The membranes were stored at minus 80° C.
Buffer 1: 20 mM Na-HEPES+10 mM EDTA, pH 7.4
Buffer 2: 20 mM Na-HEPES+0.1 mM EDTA, pH 7.4
Test compounds, membranes, SPA-particles and [^125I]-GLP-1(7-36)NH2 were diluted in assay buffer. 50 ul (micro liter) HSA (“high albumin” experiment containing 2% HSA), or buffer (“low albumin” experiment containing 0.001% HSA), was added to Optiplate, and 25 ul of test compounds were added. 5-10 ug membrane protein/sample was added (50 ul) corresponding to 0.1-0.2 mg protein/ml (to be preferably optimised for each membrane preparation). SPA-particles (Wheatgerm agglutinin SPA beads, Perkin Elmer, #RPNQ0001) were added in an amount of 0.5 mg/well (50 ul). The incubation was started with [^125I]-GLP-1]-(7-36)NH2 (final concentration 0.06 nM corresponding to 49.880 DPM, 25 ul). The plates were sealed with PlateSealer and incubated for 120 minutes at 30° C. while shaking. The plates were centrifuged (1500 rpm, 10 min) and counted in Topcounter.

Dose-corrected exposure at 30 min [1]	Ratio [(IC50/nM) high HSA]/[(IC50/nM) low HSA] (human GLP-1 receptor)	IC50 (human GLP-1 receptor) [nM]	Structure (SMILES)
86	57	–	CC[C@H](C)[C@H](NC(=O)[C@H](Cc1ccccc1)NC(=O)[C@H](CCCCNC(=O)COCCOCCNC(=O)COCCOCCNC(=O)CC[C@H](NC(=O)CCCCCCCCCCCCC(=O)O)C(=O)O)NC(=O)[C@H](CCCNC(=N)N)NC(=O)[C@@H](NC(=O)[C@H](C)NC(=O)[C@H](CCC(N)=O)NC(=O)[C@H](CCCCNC(=O)COCCOCCNC(=O)COCCOCCNC(=O)CC[C@H](NC(=O)CCCCCCCCCCCCC(=O)O)C(=O)O)NC(=O)[C@H](CCC(=O)O)NC(=O)[C@H](CC(C)C)NC(=O)[C@H](Cc1ccc(O)cc1)NC(=O)[C@H](CO)NC(=O)[C@H](CO)NC(=O)[C@@H](NC(=O)[C@H](CC(=O)O)NC(=O)[C@H](CO)NC(=O)[C@@H](NC(=O)[C@H](Cc1ccccc1)NC(=O)[C@@H](NC(=O)CNC(=O)[C@H](CCC(=O)O)NC(=O)C(C)(C)NC(=O)[C@@H](N)Cc1c[nH]cn1)[C@@H](C)O)[C@@H](C)O)C(C)C)C(C)C)C(=O)N[C@@H](C)C(=O)N[C@@H](Cc1c[nH]c2ccccc12)C(=O)N[C@@H](CC(C)C)C(=O)N[C@H](C(=O)N[C@@H](CCCNC(=N)N)C(=O)O)C(C)C [Example 8, N^ε22-[2-[2-[2-[[2-[2-[2-[[(4S)-4-carboxy-4-(13-carboxytridecanoylamino)butanoyl]amino]ethoxy]ethoxy]acetyl]amino]ethoxy]ethoxy]acetyl], N^ε27-[2-[2-[2-[[2-[2-[2-[[(4S)-4-carboxy-4-(13-carboxytridecanoylamino)butanoyl]amino]ethoxy]ethoxy]acetyl]amino]ethoxy]ethoxy]acetyl]-[Aib^8,Lys^22,Val^25,Arg^26,Lys^27,Arg^34]-GLP-1-(7-34)-peptide] (H-H[Aib]EGTFTSDVSSYLEK([AEEA-AEEA-γGlu-C14 diacid])QAVRK([AEEA-AEEA-γGlu-C14 diacid])FIAWLVR-OH)
99	174	–	CC[C@H](C)[C@H](NC(=O)[C@H](Cc1ccccc1)NC(=O)[C@H](CCCCNC(=O)COCCOCCNC(=O)COCCOCCNC(=O)CC[C@H](NC(=O)CCCCCCCCCCCCC(=O)O)C(=O)O)NC(=O)[C@H](CCCNC(=N)N)NC(=O)[C@@H](NC(=O)[C@H](C)NC(=O)[C@H](CCC(N)=O)NC(=O)[C@H](CCCCNC(=O)COCCOCCNC(=O)COCCOCCNC(=O)CC[C@H](NC(=O)CCCCCCCCCCCCC(=O)O)C(=O)O)NC(=O)[C@H](CCC(=O)O)NC(=O)[C@H](CC(C)C)NC(=O)[C@H](Cc1ccc(O)cc1)NC(=O)[C@H](CO)NC(=O)[C@H](CO)NC(=O)[C@@H](NC(=O)[C@H](CC(=O)O)NC(=O)[C@H](CO)NC(=O)[C@@H](NC(=O)[C@H](Cc1ccccc1)NC(=O)[C@@H](NC(=O)CNC(=O)[C@H](CCC(=O)O)NC(=O)C(C)(C)NC(=O)[C@@H](N)Cc1c[nH]cn1)[C@@H](C)O)[C@@H](C)O)C(C)C)C(C)C)C(=O)N[C@@H](C)C(=O)N[C@@H](Cc1c[nH]cn1)C(=O)N[C@@H](CC(C)C)C(=O)N[C@H](C(=O)N[C@@H](CCCNC(=N)N)C(=O)NCC(=O)N[C@@H](CCCNC(=N)N)C(=O)NCC(=O)O)C(C)C [Example 7, N^ε22-[2-[2-[2-[[2-[2-[2-[[(4S)-4-carboxy-4-(13-carboxytridecanoylamino)butanoyl]amino]ethoxy]ethoxy]acetyl]amino]ethoxy]ethoxy]acetyl],N^ε27-[2-[2-[2-[[2-[2-[2-[[(4S)-4-carboxy-4-(13-carboxytridecanoylamino)butanoyl]amino]ethoxy]ethoxy]acetyl]amino]ethoxy]ethoxy]acetyl]-[Aib^8,Lys^22,Val^25,Arg^26,Lys^27,His^31,Arg^34]-GLP-1-(7-37)-peptide] (H-H[Aib]EGTFTSDVSSYLEK([AEEA-AEEA-γGlu-C14 diacid])QAVRK([AEEA-AEEA-γGlu-C14 diacid])FIAHLVRGRG-OH)
65	157	0.38	CC[C@H](C)[C@H](NC(=O)[C@H](Cc1ccccc1)NC(=O)[C@H](CCCCNC(=O)COCCOCCNC(=O)COCCOCCNC(=O)CC[C@H](NC(=O)CCCCCCCCCCCCC(=O)O)C(=O)O)NC(=O)[C@H](CCCNC(=N)N)NC(=O)[C@@H](NC(=O)[C@H](C)NC(=O)[C@H](CCC(N)=O)NC(=O)[C@H](CCCCNC(=O)COCCOCCNC(=O)COCCOCCNC(=O)CC[C@H](NC(=O)CCCCCCCCCCCCC(=O)O)C(=O)O)NC(=O)[C@H](CCC(=O)O)NC(=O)[C@H](CC(C)C)NC(=O)[C@H](Cc1ccc(O)cc1)NC(=O)[C@H](CO)NC(=O)[C@H](CO)NC(=O)[C@@H](NC(=O)[C@H](CC(=O)O)NC(=O)[C@H](CO)NC(=O)[C@@H](NC(=O)[C@H](Cc1ccccc1)NC(=O)[C@@H](NC(=O)CNC(=O)[C@H](CCC(=O)O)NC(=O)C(C)(C)NC(=O)[C@@H](N)Cc1c[nH]cn1)[C@@H](C)O)[C@@H](C)O)C(C)C)C(C)C)C(=O)N[C@@H](C)C(=O)N[C@@H](Cc1c[nH]c2ccccc12)C(=O)N[C@@H](CC(C)C)C(=O)N[C@H](C(=O)N[C@@H](CCCNC(=N)N)C(=O)NCC(=O)O)C(C)C [Example 9, N^ε22-[2-[2-[2-[[2-[2-[2-[[(4S)-4-carboxy-4-(13-carboxytridecanoylamino)butanoyl]amino]ethoxy]ethoxy]acetyl]amino]ethoxy]ethoxy]acetyl],N^ε27-[2-[2-[2-[[2-[2-[2-[[(4S)-4-carboxy-4-(13-carboxytridecanoylamino)butanoyl]amino]ethoxy]ethoxy]acetyl]amino]ethoxy]ethoxy]acetyl]-Aib^8,Lys^22,Val^25,Arg^26,Lys^27,Arg^34l-GLP-1-(7-35)-peptide] (H-H[Aib]EGTFTSDVSSYLEK([AEEA-AEEA-γGlu-C14 diacid])QAVRK([AEEA-AEEA-γGlu-C14 diacid])FIAWLVRG-OH)
123	–	0.19	CC[C@H](C)[C@H](NC(=O)[C@H](Cc1ccccc1)NC(=O)[C@H](CCCCNC(=O)CC[C@H](NC(=O)COCCOCCNC(=O)COCCOCCNC(=O)CCCCCCCCCCCCC(=O)O)C(=O)O)NC(=O)[C@H](CCCNC(=N)N)NC(=O)[C@@H](NC(=O)[C@H](C)NC(=O)[C@H](CCC(N)=O)NC(=O)[C@H](CCCCNC(=O)CC[C@H](NC(=O)COCCOCCNC(=O)COCCOCCNC(=O)CCCCCCCCCCCCC(=O)O)C(=O)O)NC(=O)[C@H](CCC(=O)O)NC(=O)[C@H](CC(C)C)NC(=O)[C@H](Cc1ccc(O)cc1)NC(=O)[C@H](CO)NC(=O)[C@H](CO)NC(=O)[C@@H](NC(=O)[C@H](CC(=O)O)NC(=O)[C@H](CO)NC(=O)[C@@H](NC(=O)[C@H](Cc1ccccc1)NC(=O)[C@@H](NC(=O)CNC(=O)[C@H](CCC(=O)O)NC(=O)[C@H](C)NC(=O)[C@@H](N)Cc1c[nH]cn1)[C@@H](C)O)[C@@H](C)O)C(C)C)C(C)C)C(=O)N[C@@H](CCC(=O)O)C(=O)N[C@@H](Cc1c[nH]c2ccccc12)C(=O)N[C@@H](CC(C)C)C(=O)N[C@H](C(=O)N[C@@H](CCC(N)=O)C(=O)NCC(=O)N[C@@H](CCCNC(=N)N)C(=O)NCC(=O)O)C(C)C [Example 20, N^ε22-[(4S)-4-carboxy-4-[[2-[2-[2-[[2-[2-[2-(13-carboxytridecanoylamino)ethoxy]ethoxy]acetyl]amino]ethoxy]ethoxy]acetyl]amino]butanoyl], N^ε27-[(4S)-4-carboxy-4-[[2-[2-[2-[[2-[2-[2-(13-carboxytridecanoylamino)ethoxy]ethoxy]acetyl]amino]ethoxy]ethoxy]acetyl]amino]butanoyl]-_[Lys^22,Val^25TArg^26,Lys^27,Glu^30,Gln^34]-GLP-1-(7-37)-peptide] (H-HAEGTFTSDVSSYLEK([γGlu-AEEA-AEEA-C14 diacid])QAVRK([γGlu-AEEA-AEEA-C14 diacid])FIEWLVQGRG-OH; N-terminus and C-terminus assumed)
